Toxic doses and inconclusive results are not listed. The calls were made as follows: active = survival T/C of 150% or more; inactive = T/C below 125% in these data.
Test system: CD2F1 mice, L1210 leukemia ip, survival T/C
Assay: NCI In Vivo Anticancer Drug Screen. Data for tumor model L1210 Leukemia (intraperitoneal) in CD2F1 (CDF1) mice
Settings: higher = longer survival
In short: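 Implant tumor; dose compound or vehicle; measure endpoint in both groups; report treated divided by control.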

[1] = endpoint: mean survival time, dose: 100.0 mg/kg/injection, schedule: Q04DX003 (ip), vehicle: saline
[2] = endpoint: mean survival time, dose: 200.0 mg/kg/injection, schedule: Q04DX003 (ip), vehicle: saline
[3] = endpoint: mean survival time, dose: 75.0 mg/kg/injection, schedule: Q01DX001 (ip), vehicle: saline
[4] = endpoint: mean survival time, dose: 150.0 mg/kg/injection, schedule: Q01DX001 (ip), vehicle: saline
[5] = endpoint: mean survival time, dose: 100.0 mg/kg/injection, schedule: Q01DX001 (ip), vehicle: saline with Tween-80
[6] = endpoint: mean survival time, dose: 200.0 mg/kg/injection, schedule: Q01DX001 (ip), vehicle: saline with Tween-80
[7] = endpoint: mean survival time, dose: 400.0 mg/kg/injection, schedule: Q01DX001 (ip), vehicle: saline with Tween-80
[8] = endpoint: mean survival time, dose: 100.0 mg/kg/injection, schedule: Q01DX009 (ip), vehicle: saline with Tween-80
[9] = endpoint: mean survival time, dose: 200.0 mg/kg/injection, schedule: Q01DX009 (ip), vehicle: saline with Tween-80
[10] = endpoint: mean survival time, dose: 400.0 mg/kg/injection, schedule: Q01DX009 (ip), vehicle: saline with Tween-80
[11] = endpoint: mean survival time, dose: 12.5 mg/kg/injection, schedule: Q01DX009 (ip), vehicle: saline
[12] = endpoint: mean survival time, dose: 25.0 mg/kg/injection, schedule: Q01DX009 (ip), vehicle: saline
[13] = endpoint: mean survival time, dose: 50.0 mg/kg/injection, schedule: Q04DX003 (ip), vehicle: saline
[14] = endpoint: mean survival time, dose: 100.0 mg/kg/injection, schedule: Q04DX002 (ip), vehicle: saline with Tween-80
[15] = endpoint: mean survival time, dose: 200.0 mg/kg/injection, schedule: Q04DX002 (ip), vehicle: saline with Tween-80
[16] = endpoint: mean survival time, dose: 400.0 mg/kg/injection, schedule: Q04DX002 (ip), vehicle: saline with Tween-80
[17] = endpoint: mean survival time, dose: 150.0 mg/kg/injection, schedule: Q01DX001 (ip), vehicle: saline with Tween-80

Measured: T/C

O=C(O)C1CC1.[Ag]
inactive: endpoint: mean survival time, dose: 0.78 mg/kg/injection, schedule: Q01DX009 (ip), vehicle: water 100 % of control | endpoint: mean survival time, dose: 1.56 mg/kg/injection, schedule: Q01DX009 (ip), vehicle: water 100 % of control | endpoint: mean survival time, dose: 3.12 mg/kg/injection, schedule: Q01DX009 (ip), vehicle: water 96 % of control | endpoint: mean survival time, dose: 6.25 mg/kg/injection, schedule: Q01DX009 (ip), vehicle: water 102 % of control | endpoint: mean survival time, dose: 12.5 mg/kg/injection, schedule: Q01DX009 (ip), vehicle: water 102 % of control | endpoint: mean survival time, dose: 25.0 mg/kg/injection, schedule: Q01DX009 (ip), vehicle: water 104 % of control | [1] 93 % of control | [2] 93 % of control

COc1ccc(C2(C)OCCCC2([NH-])C[NH-])cc1.[Cl][Pt+2][Cl] (configuration not stated)
inactive: endpoint: median survival time, dose: 10.0 mg/kg/injection, schedule: Q04DX003 (ip), vehicle: saline 105 % of control | endpoint: median survival time, dose: 20.0 mg/kg/injection, schedule: Q04DX003 (ip), vehicle: saline 103 % of control | endpoint: median survival time, dose: 40.0 mg/kg/injection, schedule: Q04DX003 (ip), vehicle: saline 105 % of control | endpoint: median survival time, dose: 80.0 mg/kg/injection, schedule: Q04DX003 (ip), vehicle: saline with Tween-80 100 % of control | endpoint: median survival time, dose: 80.0 mg/kg/injection, schedule: Q04DX003 (ip), vehicle: saline 95 % of control | endpoint: median survival time, dose: 160.0 mg/kg/injection, schedule: Q04DX003 (ip), vehicle: saline with Tween-80 110 % of control | endpoint: median survival time, dose: 320.0 mg/kg/injection, schedule: Q04DX003 (ip), vehicle: saline with Tween-80 115 % of control

OCCN1CCCCCCC1
inactive: [3] 95 % of control | [4] 102 % of control

CP(=O)(c1ccccc1)c1ccccc1
inactive: [5] 100 % of control | [6] 103 % of control | [7] 98 % of control

C=CCCCCCCCCC(=O)NCCCC(OCC)OCC
inactive: [8] 100 % of control | [9] 100 % of control | [10] 98 % of control

O=C1OC2CC3CCC2C13 (configuration not stated)
inactive: endpoint: mean survival time, dose: 6.25 mg/kg/injection, schedule: Q01DX009 (ip), vehicle: saline 101 % of control | [11] 101 % of control | [12] 95 % of control

COc1cc(Cl)ccc1NC(=O)OCCOc1cc(OC)c(Cl)c(OC)c1
inactive: [8] 101 % of control | [9] 103 % of control | [10] 101 % of control

CN(C)CCCn1c2ccccc2c2cnccc21
inactive: endpoint: mean survival time, dose: 25.0 mg/kg/injection, schedule: Q04DX003 (ip), vehicle: saline 98 % of control | [13] 110 % of control | [1] 113 % of control

Cc1cc(C)nc(NC(=S)N/N=C/c2ccccn2)n1
inactive: [14] 98 % of control | [15] 98 % of control | [16] 106 % of control

CC(C)C(NC(=O)c1cccnc1)C(=O)O (configuration not stated)
inactive: endpoint: mean survival time, dose: 50.0 mg/kg/injection, schedule: Q04DX002 (ip), vehicle: saline with Tween-80 100 % of control | [5] 108 % of control | [14] 100 % of control | [6] 108 % of control | [15] 104 % of control | [7] 97 % of control

NC(N)=NC(N)=Nc1ccc(Cl)c(Cl)c1
inactive: endpoint: mean survival time, dose: 50.0 mg/kg/injection, schedule: Q01DX001 (ip), vehicle: Klucel (hydroxypropylcellulose) (HPC) 94 % of control | endpoint: mean survival time, dose: 100.0 mg/kg/injection, schedule: Q01DX001 (ip), vehicle: Klucel (hydroxypropylcellulose) (HPC) 105 % of control | endpoint: mean survival time, dose: 150.0 mg/kg/injection, schedule: Q01DX009 (ip), vehicle: saline 108 % of control | endpoint: mean survival time, dose: 200.0 mg/kg/injection, schedule: Q01DX001 (ip), vehicle: Klucel (hydroxypropylcellulose) (HPC) 94 % of control

CCC12NC(=O)NC1(C)NC(=O)N2 (configuration not stated)
inactive: endpoint: mean survival time, dose: 6.25 mg/kg/injection, schedule: Q01DX009 (ip), vehicle: saline with Tween-80 95 % of control | endpoint: mean survival time, dose: 6.25 mg/kg/injection, schedule: Q04DX003 (ip), vehicle: saline with Tween-80 102 % of control | endpoint: mean survival time, dose: 12.5 mg/kg/injection, schedule: Q01DX009 (ip), vehicle: saline with Tween-80 95 % of control | endpoint: mean survival time, dose: 12.5 mg/kg/injection, schedule: Q04DX003 (ip), vehicle: saline with Tween-80 106 % of control | endpoint: mean survival time, dose: 25.0 mg/kg/injection, schedule: Q01DX009 (ip), vehicle: saline with Tween-80 93 % of control | endpoint: mean survival time, dose: 25.0 mg/kg/injection, schedule: Q04DX003 (ip), vehicle: saline with Tween-80 110 % of control

C/C=C/COc1c(C)cc(C)cc1/C=C/C
inactive: [14] 94 % of control | [15] 94 % of control | [16] 102 % of control

Cc1cc2c(=O)[nH]cnc2[nH]1
inactive: endpoint: median survival time, dose: 12.5 mg/kg/injection, schedule: Q01DX005 (ip), vehicle: saline with Tween-80 102 % of control | endpoint: median survival time, dose: 25.0 mg/kg/injection, schedule: Q01DX005 (ip), vehicle: saline with Tween-80 100 % of control | endpoint: median survival time, dose: 50.0 mg/kg/injection, schedule: Q01DX005 (ip), vehicle: saline with Tween-80 101 % of control | endpoint: median survival time, dose: 50.0 mg/kg/injection, schedule: Q01DX005 (ip), vehicle: saline 102 % of control | endpoint: median survival time, dose: 100.0 mg/kg/injection, schedule: Q01DX005 (ip), vehicle: saline 90 % of control

C[N+]1(C)CCC(c2ccccc2)(c2ccccc2)C(=O)C1
inactive: [3] 101 % of control | [4] 101 % of control

C1CN2CN3CCN(CN1C3)C2
inactive: [11] 97 % of control | [12] 109 % of control | endpoint: mean survival time, dose: 50.0 mg/kg/injection, schedule: Q01DX009 (ip), vehicle: saline 105 % of control | endpoint: mean survival time, dose: 100.0 mg/kg/injection, schedule: Q01DX009 (ip), vehicle: saline 118 % of control

CC1(C)COC2(c3ccccc3)N1C(=C(Cl)Cl)OC(=O)C2(Cl)Cl (configuration not stated)
inactive: endpoint: mean survival time, dose: 75.0 mg/kg/injection, schedule: Q01DX001 (ip), vehicle: saline with Tween-80 101 % of control | [17] 90 % of control | endpoint: mean survival time, dose: 300.0 mg/kg/injection, schedule: Q01DX001 (ip), vehicle: saline with Tween-80 109 % of control

CCCCNS(=O)(=O)c1cn(CCCC)c(=O)[nH]c1=O
inactive: endpoint: mean survival time, dose: 37.5 mg/kg/injection, schedule: Q01DX001 (ip), vehicle: saline with Tween-80 100 % of control | [17] 96 % of control | endpoint: mean survival time, dose: 175.0 mg/kg/injection, schedule: Q01DX001 (ip), vehicle: saline with Tween-80 100 % of control

CN(CC(=O)O)Cc1ccccc1
inactive: [13] 102 % of control | [1] 100 % of control | [2] 108 % of control

Cc1cc2ccc(Cl)cc2[nH]1
inactive: endpoint: mean survival time, dose: 100.0 mg/kg/injection, schedule: Q01DX001 (ip), vehicle: other 104 % of control | endpoint: mean survival time, dose: 200.0 mg/kg/injection, schedule: Q01DX001 (ip), vehicle: other 104 % of control

COCc1nnc(N)c(C(N)=O)n1
inactive: endpoint: mean survival time, dose: 100.0 mg/kg/injection, schedule: Q01DX001 (ip), vehicle: carboxymethylcellulose (CMC) 100 % of control | endpoint: mean survival time, dose: 200.0 mg/kg/injection, schedule: Q01DX001 (ip), vehicle: carboxymethylcellulose (CMC) 100 % of control | endpoint: mean survival time, dose: 400.0 mg/kg/injection, schedule: Q01DX001 (ip), vehicle: carboxymethylcellulose (CMC) 89 % of control

O=C(NN(C(=O)c1ccccc1)c1ccccc1)c1ccccc1
inactive: [14] 100 % of control | [15] 107 % of control | [16] 103 % of control

Reference: PubChem BioAssay AID256 (DTP/NCI, 2004)
